Where “and” joins values, the source holds several entries; their conditions need not be identical. Equal values may be shown once. Entries after “also recorded” stand apart in the source; their conditions may differ.
Experiments:
SW1736 cells = test: MTT cell viability assay, SW1736 cells; format: cell-based, human; settings: for ED50 SW1736: MTT test, 72 h, mean ± SD
Text: (§1) Anaplastic thyroid cancer (ATC), while rare, remains one of the deadliest cancers known, showing a median overall survival of 3 months. […] Several therapeutic strategies were thus developed, ranging from more classical methods such as inhibition of cyclin-dependent kinases, to more innovative ones including the use of epigenetic drugs. However, so far, all efforts made in the search for new molecules that can counteract the very high mortality of ATC have often been thwarted by the relative ease with which cancer cells are able to gain drug resistance. For these reasons, the development of new molecules that can increase ATC treatment options is crucial in an effort to extend the life expectancy. A preliminary assessment of the effects of the compounds under consideration involved studying their effectiveness in terms of cell viability. In order to evaluate the antitumor efficacy of ruthenium compounds, they were administered to ATC cells (SW1736 and 8505C) and to a non-tumorigenic thyroid cell line (Nthy-ori 3-1) at increasing doses, and an MTT assay was performed. Once the effects in terms of cell viability were observed, the effective dose 50 (ED50) was calculated by interpolation of the scatter plot curve (dose/effect). The two lines of ATC were similarly sensitive to each of the compounds tested, with the ED50 spanning from 0.3 to 8 µM, calculated at a 72 h time point (Table 2).
(§2) In this study, we used two different human anaplastic thyroid cancer cell lines (SW1736 and 8505C) and a non-tumorigenic thyroid cell line (Nthy-ori 3-1) that were grown as previously described. All cell lines have been validated by short tandem repeat and tested for being mycoplasma-free. Cells were grown in RPMI 1640 medium (EuroClone, Milan, Italy) supplemented with 10% fetal bovine serum (Gibco Invitrogen, Milan, Italy), 2 mM L-glutamine (EuroClone, Milan, Italy), and […] gentamicin (Gibco Invitrogen, Milan, Italy). Cells were maintained in a humidified incubator (5% CO2, 37 °C).
(§3) In order to test cell viability, we applied the methylthiazolyldiphenyl-tetrazolium bromide (MTT) assay as previously described. SW1736, 8505C and Nthy-ori 3-1cells (3000 cells/well) were plated onto 96-well plates in 200 μL medium/well and were allowed to attach to the plate for 24 h (t0). Plates were then treated either with DMSO or with each of the different compounds at different concentrations for 72 h. Then, 4 mg/mL MTT (Merck, Darmstadt, Germany) was added to the cell medium, and cells were cultivated for another 4 h in the incubator. The supernatant was removed, 100 μL/well of DMSO (Merck, Darmstadt, Germany) was added, and the absorbance at 570 nm was measured. All experiments were run sixfold and cell viability was expressed as a fold change compared to control. ED50 was calculated by interpolation of the scatter plot obtained by crossing each dose with its own observed effect.

8505C cells = test: MTT cell viability assay, 8505C cells; format: cell-based, human; settings: MTT test, 72 h, mean ± SD
Text: as §1, §2, §3

Nthy-ori 3-1 cells = test: MTT cell viability assay, non-tumorigenic Nthy-ori 3-1 cells; format: cell-based, human; settings: MTT test, 72 h, nontumorigenic thyroid cells, mean ± SD
Text: as §1, §2, §3

[1] = system: anaplastic thyroid cancer 8505C and SW1736 cell lines; test: MTT cell viability assay, ATC cell lines taken together; format: cell-based; settings: 72 h
Text: as §1
In this study, we used two different human anaplastic thyroid cancer cell lines (SW1736 and 8505C) and a non-tumorigenic thyroid cell line (Nthy-ori 3-1) that were grown as previously described. […]
In order to test cell viability, we applied the methylthiazolyldiphenyl-tetrazolium bromide (MTT) assay as previously described. […] The supernatant was removed, 100 μL/well of DMSO (Merck, Darmstadt, Germany) was added, and the absorbance at 570 nm was measured. All experiments were run sixfold and cell viability was expressed as a fold change compared to control. ED50 was calculated by interpolation of the scatter plot obtained by crossing each dose with its own observed effect.

Compound: N.N.[Cl][Pt][Cl] [Cisplatin, reference compound]
- ED50 SW1736 (SW1736 cells): 6.40 ± 1.54 µM
- ED50 8505C (8505C cells): 5.20 ± 1.82 µM
- ED50 Nthy-ori 3-1 (Nthy-ori 3-1 cells): 11.28 ± 0.96 µM

Compound: [Ru(η^1-OAc)(NNN-tpy)((R,R)-Skewphos)]OAc [Complex 6]
- ED50 SW1736 (SW1736 cells): 1.39 µM and 1.39 ± 0.14 µM
- ED50 8505C (8505C cells): 1.88 ± 0.21 µM
- ED50 Nthy-ori 3-1 (Nthy-ori 3-1 cells): 4.38 ± 0.13 µM

Compound: [Ru(η^1-OAc)(NNN-tpy)((S,S)-Skewphos)]OAc [Complex 7]
- cytotoxicity (ED50) compared to the enantiomer 6 (SW1736 cells; ED50 0.31 vs 1.39 µM): four times lower; also recorded: four times higher
- ED50 SW1736 (SW1736 cells): 0.31 µM and 0.31 ± 0.11 µM
- ED50 8505C (8505C cells): 0.75 ± 0.09 µM
- ED50 Nthy-ori 3-1 (Nthy-ori 3-1 cells): 4.85 ± 0.17 µM

Compound: [Ru(η^2-OAc)(NC-tpy)((R,R)-Skewphos)] [Complex 4]
- ED50 SW1736 (SW1736 cells): 2.18 ± 0.16 µM
- ED50 8505C (8505C cells): 1.95 ± 0.23 µM
- ED50 Nthy-ori 3-1 (Nthy-ori 3-1 cells): 3.88 ± 0.31 µM
- cytotoxicity (in words) [1]: moderate cytotoxicity

Compound: [Ru(η^2-OAc)(NC-tpy)((S,S)-Skewphos)] [Complex 5]
- ED50 SW1736 (SW1736 cells): 2.11 ± 011 µM
- ED50 8505C (8505C cells): 2.06 ± 0.26 µM
- ED50 Nthy-ori 3-1 (Nthy-ori 3-1 cells): 4.18 ± 0.09 µM
- cytotoxicity (in words) [1]: moderate cytotoxicity

Compound: [Ru(η^2-OAc)(NC-tpy)(dppb)] [Complex 1]
- ED50 SW1736 (SW1736 cells): 8.53 ± 0.98 µM
- ED50 8505C (8505C cells): 7.73 ± 1.02 µM
- ED50 Nthy-ori 3-1 (Nthy-ori 3-1 cells): 10.59 ± 1.28 µM
- cytotoxicity (in words) [1]: moderate cytotoxicity

Compound: [RuCl(NNN-tpy)((R,R)-Skewphos)]Cl [reference compound]
- ED50 SW1736 (SW1736 cells): 3.36 ± 0.42 µM
- ED50 8505C (8505C cells): 4.57 ± 0.53 µM
- ED50 Nthy-ori 3-1 (Nthy-ori 3-1 cells): 6.91 ± 0.62 µM

Compound: [RuCl(NNN-tpy)((S,S)-Skewphos)]PF6 [reference compound]
- ED50 SW1736 (SW1736 cells): 2.63 µM and 2.63 ± 0.14 µM
- ED50 8505C (8505C cells): 2.25 ± 0.17 µM
- ED50 Nthy-ori 3-1 (Nthy-ori 3-1 cells): 7.21 ± 0.74 µM
